Entries after “also recorded” stand apart in the source; their conditions may differ. Where no end group is shown, it is not given here.
Columns and labels:
HEK 293 cells = format: cell-based, human; settings: MTT, 24 h, 37°C, triplicates, read-out: Toxicity IC50
Procedure: HeLa epithelioid cervix carcinoma cells (originally purchased: 93021013, Sigma Aldrich) and HEK 293 human embryonic kidney (originally purchased: 85120602, Sigma Aldrich) were routinely cultivated in Dulbecco’s MEM high glucose (DMEM, with L-glutamine, without phenol red, 1-26P32, Bioconcept, Allschwil, CH), supplemented with 10% fetal bovine serum (heat inactivated, sterile filtered, F9665, Sigma Aldrich) and 100 IU ml^−1/100 μg ml^−1 Penicillin/streptomycin (4-01F00, Bioconcept) at 37°C with 5% CO2. Cells were split at a confluency of ≤ 90% (every 3 to 4 days) and maintained for max. 10 passages before a fresh aliquot of cells were seeded. […] The cell concentration was determined using a Countess 2 device (Thermo Fisher Scientific) and approx. 5000 (HeLa) or 25,000 (HEK 293) cells were seeded into wells of a 96-well plate (F-bottom, PS, 655180, Greiner) together with 100 μl DMEM. […] For each dilution series, the IC50 value was determined by computing a weighted n-parameters logistic regression using the “nplr” package in R (https://CRAN.R-project.org/package=nplr). […]

CD-1 mice = test: Maximum tolerated dose / in vivo toxicity; set-up: species or system mouse
Procedure: (§1) CD-1 mice (7 weeks old, 27–28 g female) were used (Charles River, France). These animals were housed for a week of acclimation period before the experiment in a protected area in the ‘Centre de Zootechnie de l’Université de Bourgogne’ (Biosafety level 2 facility) and fed ad libitum according to the current recommendations by the European Institute of Health. Housing took place in rooms where a 12-h/12 h light/dark cycle is applied, the temperature ranges from 18 to 21°C and the relative humidity from 45 to 65%. The animal facility is authorized by the French authorities (Agreement N° C 21 464 04 EA). […]
(§2) For animal experiments, Bac7PS was synthesized at Genscript as acetate salt and with a purity of 92%. […] First, the maximum tolerated dose (MTD) for the peptide was determined by testing different peptide doses in 8 groups with 5 animals per group. The peptide solution was administered once by intraperitoneal (IP) injection with a volume of between 94 and 240 μl (depending on the weight of the animal and the dosage) and the animals were monitored for 2 h following the injection, then 6 to 8 h later, and then once or twice a day, depending on the clinical status, up to 5 days post-injection. […] As endpoint, the wellbeing and survival rate, on a twice daily based evaluation for up to 3 days, was monitored.

E. coli ATCC 25922 = test: In vivo efficacy, murine septicemia model; settings: 10 CD-1 mice, up to 3 days
Procedure: as §1, §2

RRIRIRPPRLPRPRPRPYFMPRP [Bac7PS]
IC50 (HEK 293 cells): 755 µM
tolerability of a second administration (CD-1 mice; 40 mg kg^−1 IP, repeated 4 h after first dosing): does not influence the survival of mice; also recorded: tolerated
maximal dose at which all CD-1 mice survived (CD-1 mice; intraperitoneal, 3 days, single administration, 5 animals per group): 50 mg/kg
survival (E. coli ATCC 25922; 10 mg kg^−1 IP twice (1 and 4 h post-infection)): 60%
survival (E. coli ATCC 25922; 30 mg kg^−1 IP twice (1 and 4 h post-infection)): 80%
